Several values for one entry are separate records, joined by “and”; a condition that tells them apart may be missing. Equal values may be shown once.
Tested on: P. falciparum 3D7 growth, pLDH absorbance
Assay: blood-stage malaria parasite growth potency – strain 3D7, dose response (AID 2305)

Compound	IC50
O=c1cc(NCc2ccccc2NCc2ccc(Cl)c(Cl)c2)[nH]c2ccccc12	840 nM
CCOCCCn1c(=N)c(C(=O)NCc2ccc(OC)cc2)cc2c(=O)n3cccc(C)c3nc21	1060 nM
O=C(NCc1cccc(F)c1)Nc1ccc(-c2cccc(-c3nc4ccc(F)cc4[nH]3)c2)cc1	770 nM
O=C(Nc1ccc(Br)c(C(F)(F)F)c1)c1cccc([N+](=O)[O-])c1	910 nM
CC(C)N1CCN(C(CN2CCN(CCCOc3ccccc3-c3ccccc3)CC2)c2ccc(F)cc2)CC1 (configuration not stated)	790 nM
c1ccc(CNc2nc(NCCc3cnc[nH]3)nc(N3CCCC4CCCCC43)n2)cc1 (configuration not stated)	830 nM
CCOc1ccc(NC(C)=O)c(O)c1	840 nM
Clc1ccc(Cc2nc3ccccc3[nH]2)cc1Cl	250 nM
CCOc1cc2ncnc(Nc3ccc(OCc4ccccc4F)c(Cl)c3)c2cc1OCC	600 nM
Cn1c(=O)c(-c2c(Cl)cccc2Cl)cc2cnc(Nc3ccc(N4CCOCC4)cc3)nc21	160 nM
CCOc1cc(C(=O)NCc2cc(Cl)cc(Cl)c2)ccc1-c1nc2ccc(Cl)cc2[nH]1	730 nM
COc1cc(C2=NN(S(=O)(=O)c3c(C)cc(C)cc3C)CCCC2)ccc1Cl	780 nM
CCCCn1c(Sc2ccc(C#N)c([N+](=O)[O-])c2)nnc1-c1cccc(Cl)c1	760 nM
N#CC(c1cccc(Cl)c1)c1ccc2c(C(F)(F)F)cc(C(F)(F)F)nc2n1 (configuration not stated)	730 nM
Oc1ccc(-c2nc3c4cc(I)ccc4c4ccc(I)cc4c3[nH]2)cc1	970 nM
COc1cc2nc(C)nc(Nc3cccc(Br)c3)c2cc1OC	360 nM
Cc1cc(N2CCN(CC3CCCCC3)CC2)nc(Nc2ccc(Br)cc2)n1	1090 nM
COC(=O)c1ccc(C(=O)NCCCCN2CCC(c3ccc4c(c3OC)CCCC4)CC2)cc1-c1ccc(C(F)(F)F)cc1	1150 nM
COc1csc2cc(Br)ccc12	860 nM
CC(=O)Nc1nc(C(=O)Nc2ccc(-c3ccc(-c4nc5ccc(F)cc5[nH]4)cc3)cc2)cs1	460 nM
Cc1noc(C)c1-c1cccc(CNCc2cccc(-c3ccc(-c4nc5ccccc5[nH]4)s3)c2)c1	200 nM
c1cc2nc(CCCCc3nc4ccc(C5=N[C@H]6CCCC[C@H]6N5)cc4[nH]3)[nH]c2cc1C1=N[C@H]2CCCC[C@H]2N1	410 nM
C[C@@H]1CN(c2cnn(C/C=C/c3ccc(NC(=O)c4ccc5nonc5c4)cc3)c(=O)c2Cl)C[C@H](C)N1	790 nM
Nc1cccc(CNCc2cccc(-c3cccc(-c4nc5ccc(C(F)(F)F)cc5[nH]4)c3)c2)c1	510 nM
O=S(=O)(NCCN1CCCC1)c1ccc(-c2cccc(CNCc3ccccc3)c2)s1	810 nM

Compound	IC50
COc1ccc(C(=O)[C@H]2C[C@@H]2CN2CC=C(c3c[nH]c4cccc(Br)c34)CC2)cc1	930 nM
N#Cc1ccc(-c2ccc(C(=O)NCCCCN3CC=C(c4ccc5c(c4OCC4CC4)CCCC5)CC3)cc2)cc1	620 nM
CN1CCC=C(C(=O)NCC(C)(C)c2nc(-c3ccc(Cl)c(O)c3)c(-c3ccncc3)[nH]2)C1	1000 nM
COC(=O)c1ccc(CC(C)NCC(O)c2ccc(C(O)CNC(C)Cc3ccc(C(=O)OC)cc3)cc2)cc1 (configuration not stated)	1030 nM
COc1ccc2nccc([C@@H](O)CN3CCC(NCc4ccc5c(n4)NCCC5)CC3)c2c1	740 nM
CCc1ccc(NC(=O)c2ccc(CN3CCCN(Cc4cccc(O)c4)CC3)cc2)cc1	670 nM
COc1ccc2nccc(NN=Cc3ccc([N+](=O)[O-])cc3)c2c1	710 nM
C=CC[C@H](C[C@H](O)[C@H](Cc1ccccc1)NC(=O)c1nn(-c2ccccc2)nc1C)C(=O)NC1CCCCC1	920 nM
CS(=O)(=O)n1c(CN2CCN(c3ncc(C(F)(F)F)cc3Cl)CC2)nc2ccccc21	1060 nM
COc1ccc2nccc([C@@H](O)CN3CCC(NC(=O)/C=C/c4cc([N+](=O)[O-])ccc4OC)CC3)c2c1	260 nM
Cc1nc(N)nc(N)c1OCc1cccc2ccccc12	70 nM
COc1ccc(-c2cccc(CNCc3ccc(F)cc3)c2)cc1S(=O)(=O)NCCN1CCCC1	1850 nM
CC(C)N(C(=O)CSc1nc2cc(Cl)ccc2c(=O)n1Cc1ccccc1)C(C)C	170 nM
O=C(NCc1ccccc1)c1nn(CCCN2CCC(N3CCCC3)CC2)cc1-c1ccc(Cl)c(Cl)c1	670 nM
Cc1[nH]c2cc(Cl)ccc2c1C1=CCN(CCN2CCOc3c(Br)cccc3C2=O)CC1	870 nM
CN(C)CCNCc1ccc(-c2ccc(-c3nc4ccccc4[nH]3)s2)cc1	570 nM
COc1ccc(CNc2nccc3ccc(-c4ccc5nccn5c4)cc23)cc1	880 nM
CC(C)CNC(=O)c1ccnc(-c2ccc(CNCCCc3ccccc3)cc2)c1	730 nM
CCn1cnc2c(N3CCCCS3(=O)=O)cc(C(=O)N[C@@H](Cc3ccccc3)[C@H](O)CNC3CCOCC3)cc21	710 nM
CCCCOc1cc(C)nc2ccc(NC(=O)COCC(=O)Nc3ccc4nc(C)cc(OCCCC)c4c3)cc12	1000 nM
COc1cccc(OC)c1-c1ccccc1NC(=O)N1CCCc2cc(C)ccc21	820 nM
CCN(CC)CCN(CCN(CC)CC)c1ccc(-c2nc3cc(Cl)c(Cl)cc3[nH]2)cc1	780 nM
CC(C)C(=O)ONC1=NC(C)(C)N(OCCCOc2cc(Cl)c(Cl)cc2Cl)C(NOC(=O)C(C)C)=N1	30 nM
CC1CCCCN1CCCNc1nc(NCc2ccccc2)c2ccccc2n1 (configuration not stated)	950 nM
CO/N=C(\C)c1ccc2c(c1)CCN(CCC1CCC(NC(=O)c3cccc(-c4noc(C)n4)c3)CC1)CC2 (configuration not stated)	240 nM

Compound	IC50
CC[C@H]1CN2CC[C@@H]1C[C@H]2[C@H](O)c1cc(N2CCC(c3ccccc3)CC2)nc2ccc(OC)cc12	350 nM
Cc1cc(CNC(c2ccccc2)C2CCC2)cc(C)c1O (configuration not stated)	890 nM
Cc1cccc2[nH]c(-c3cccc(-c4cccc(NC(=O)Nc5cccc(C#N)c5)c4)c3)nc12	100 nM
CN1CCN(CC(=O)Nc2cccc(-c3ccc(-c4nc5ccc(F)cc5[nH]4)s3)c2)CC1	680 nM
CN(c1ccc(NC(=O)c2ccc(F)cc2)cc1)C1CCN(Cc2cccc(F)c2)C1 (configuration not stated)	1410 nM
NC1=NC(c2ccccc2)(c2cccc(O)c2)C(=O)N1CCCc1ccccc1 (configuration not stated)	1230 nM and 840 nM
COc1cc(OC)cc(-c2nn(-c3ccc([N+](=O)[O-])cc3Cl)c(=S)n2CC2CCCO2)c1 (configuration not stated)	960 nM
c1cncc(CCNCc2ccc(-c3ccc(-c4nc5ccccc5[nH]4)s3)cc2)c1	210 nM
CCNc1cc(C(=O)N[C@@H](Cc2ccc(F)c(F)c2)[C@H](O)CNC2CCCCC2)cc(N2CCCCS2(=O)=O)c1	120 nM
CN1CCN(Cc2cc3cc(NC(=O)/C=C/c4ccc(Cl)cc4)ccc3s2)CC1	770 nM
O=C(NC1CCC(CN2CCC(c3c[nH]c4ccccc34)CC2)CC1)c1ccc(-c2ccccc2[N+](=O)[O-])o1 (configuration not stated)	770 nM
O=C(NCc1ccccc1)NC1CCN(c2ccnc3cc(Cl)ccc23)C1 (configuration not stated)	160 nM
Cc1cccc2[nH]c(-c3cccc(-c4ccc(NC(=O)c5ccncc5)cc4)c3)nc12	500 nM
COc1ccc(Cl)cc1NC(=O)Nc1ccc2c(c1)CCN(C1CCC1)CC2	810 nM
O=C(O)c1ccc(-c2c[nH]c3ncc(-c4ccc(Cl)cc4)cc23)cc1	730 nM
N#Cc1ccc(-c2cnc3ccc(NCc4ccc(S(N)(=O)=O)cc4)nn23)cc1	780 nM
Cc1[nH]c2ccccc2c1C1=CCN(CCCCC23CCCc4cccc(c42)NC3=O)CC1 (configuration not stated)	230 nM
CNC(=O)C(NC(=O)c1ccccc1C(=O)OC)c1ccccc1 (configuration not stated)	560 nM
CCCCCCc1cc(O)c2c3c(c(=O)oc2c1)CCN(C)C3	670 nM
Cc1cc2ncn(-c3ccnc(N4CCN(CCCN5CCCC5)CC4)n3)c2cc1C	830 nM
O=C(NCCN1CCCC1)c1cc(-c2ccc(Cl)c(O)c2)c(-c2ccncc2)o1	1630 nM
O=C(/C=C/c1ccccc1O)NCCCCCN1CCC(c2c[nH]c3ccccc23)CC1	830 nM
CC(=O)N1c2ccccc2C(C)=CC1(C)C	940 nM
Cc1[nH]c2ccc(O)cc2c1C1CCN(CC2CCN(C(=O)/C=C/c3ccc(Cl)c(Cl)c3)CC2)CC1	1000 nM
CCCCN(CCCC)CCC(O)C(=Cc1ccc(Cl)cc1Cl)c1ccc(C(F)(F)F)cc1N (configuration not stated)	190 nM

Compound	IC50
Cc1cc(OCCCN2CCC(NS(=O)(=O)c3ccc(C(F)(F)F)cc3)CC2)c2ccccc2n1	1220 nM
COc1cc(C)c(C(O)CNC(C)CCc2ccccc2)cc1C (configuration not stated)	730 nM
CC(=O)Nc1ccc(CN2CCC(N(C)c3cc(NC(=O)c4cccc(F)c4)ccn3)CC2)cc1	1380 nM
O=[N+]([O-])c1nc(Br)n(Cc2ccc(Cl)cc2)n1	360 nM
CN1CCCC(CN2CCN(Cc3ccc(-c4cccc(-c5nc6ccccc6[nH]5)c4)cc3)CC2)C1 (configuration not stated)	130 nM
CCN(CC)CCN(Cc1ccc(-c2ccc(C(F)(F)F)cc2)cc1)C(=O)Cn1c(CCc2cccc(F)c2F)cc(=O)cc1-c1ccccc1	780 nM
Cc1cccc2[nH]c(-c3ccc(-c4cccc(NC(=O)Nc5ccc6c(c5)OCO6)c4)cc3)nc12	740 nM
COc1cccc2cc(C(=O)N[C@@H](CC(C)C)C(=O)N[C@H](/C=N/NC(=O)OC(C)(C)C)CC(C)C)oc12	900 nM
O=C(Nc1cccc(N2CCC(NCCCc3ccncc3)CC2)c1)c1cccc(C(F)(F)F)c1	850 nM
O=C(N[C@@H](Cc1ccccc1)C(=O)NCCN1CCCCC1)c1ccc(O)c(-c2cccc(C(F)(F)F)c2)c1	850 nM
OC(CNc1ccnc(Nc2cccc(Cl)c2)n1)c1ccccc1C(F)(F)F (configuration not stated)	900 nM
CCNc1cc(C(=O)N[C@@H](Cc2ccccc2)[C@H](O)CNC(C)(C)Cc2ccccc2)cc(N2CCCC2=O)c1	260 nM
Cc1ccc2c(Cl)c(C(=O)N3CCCc4ccccc43)sc2c1	1510 nM
c1ccc2c(Nc3ccc(Cc4ccc(Nc5c6ccccc6nc6ccccc56)cc4)cc3)c3ccccc3nc2c1	160 nM
O=C(Nc1ccc(Oc2ccccc2)cc1)NC1CCC(CN2CCC(c3c[nH]c4ccccc34)CC2)CC1 (configuration not stated)	570 nM
NC1=NC2(CCCCC2)N(OCCCCCCC2CCCCC2)C(N)=N1	360 nM
O=c1cc(NCCCNCc2cccc(OC(F)(F)F)c2)[nH]c2ccccc12	850 nM
Cc1cc(NN=Cc2ccccc2[N+](=O)[O-])c2ccccc2n1	780 nM
CCc1nonc1NC(=O)c1oc2c(C)c(C)ccc2c1C	880 nM
CC(C)(C)c1cc2cc(Nc3ccnc4cc(-c5nccs5)ccc34)ccc2[nH]1	440 nM
COc1ccccc1CCNc1nc(C)cc(N[C@@H](Cc2ccccc2)C(=O)NCc2cccc(F)c2)n1	870 nM
COc1ccc(C(=O)CCC(=O)N(Cc2ccc(-c3ccc(CNCCc4ccccc4)cn3)cc2)C(C)CN(C)C)cc1F (configuration not stated)	750 nM
